Values of other authors as cited in US20070148074A1, “Nanoparticle based stabilization of ir fluorescent dyes” (priority 2003, published 2007).

Tests used:
[1] = human body, administered intravenously

Question: Which results are given for `CC1(C)C(/C=C/C=C/C=C/C=C2\N(CCCCS(=O)(=O)O)c3ccc4ccccc4c3C2(C)C)=[N+](CCCCS(=O)(=O)[O-])c2ccc3ccccc3c21` [ICG, indocyanine green]?
Answer: elimination half-life [1]: 2 to 4 min; fraction of dye in plasma that is protein-bound: ~95%
